Where “and” joins values, the source holds several entries; their conditions need not be identical. Equal entries are not always repeated.
Assays:
[1] = tested on: HE-caused hospitalization in subjects with HE; experiment: HE-caused hospitalization, first study; type: in vivo, human
From the text: FIG. 5 illustrates time to first HE-caused hospitalizations by treatment group in the first study. […] Note for FIG. 10, the survival distribution estimate on y-axis represents the proportion of subjects without HE-caused hospitalizations. Dashed line represents rifaximin group and solid line represents placebo group. Open circles and open triangles represent censored subjects. Subjects who discontinued prior to hospitalization were censored at the time of discontinuation.

[2] = tested on: Conn score and asterixis grade in subjects with HE; experiment: Changes from baseline in Conn scores and asterixis grades, second study; type: in vivo, human
From the text: Normalizing for subject exposure, this represents a hospitalization rate of 0.60 event/PEY. A total of 59 were hospitalized due HE episodes (e.g., HE-caused). Normalizing for subject exposure, this represents an HE-caused hospitalization rate of 0.29 event/PEY. […] All subjects were capable of worsening over time, and 24/266 subjects (9.0%) did so by 1 or 2 grades.
The last visit for the second study is the last visit recorded for the interim analysis.

[3] = tested on: asterixis grade in subjects with HE; experiment: Time to any increase from baseline in asterixis grade, first study; type: in vivo, human; conditions: for Probability of no increase in asterixis grade: Kaplan-Meier estimate, ITT; for Probability of no increase in asterixis grade / Cummulative number of events (increase in asterixis grade) / Number of events (increase in asterixis grade): Rifaximin N = 140; for Cummulative number of events (increase in asterixis grade) / Number of events (increase in asterixis grade): ITT population
Experimental: Asterixis (flapping tremor) was determined with the subject holding both arms and forearms extended with wrists dorsiflexed and fingers open for ≥30 seconds. Asterixis was measured on a continuum of 5 grades, e.g., grades 0 and 4=no abnormal movement vs. almost continuous flapping motions, respectively as shown below: • Grade 0=No tremors; • Grade 1=Rare flapping motions; • Grade 2=Occasional, irregular flaps; • Grade 3=Frequent flaps; and • Grade 4=Almost continuous flapping motions.
Efficacy in regard to asterixis grade was measured as time to any increase from baseline in asterixis grade.
FIG. 12 illustrates time to any increase from baseline in asterixis grade by treatment group in the ITT population in the first study. Table 21 presents estimates of the proportions of subjects who had any increase in asterixis grade over the course of the Treatment Period and results of statistical analyses. Subjects who discontinued prior to experiencing an increase in asterixis grade and prior to completion of the 6-month treatment period were censored at the time of discontinuation.

[4] = tested on: blood ammonia concentration in subjects with HE; experiment: Blood (venous) ammonia concentration, change from baseline, first study; type: in vivo, human; conditions: ITT, change from baseline to end of treatment
Experimental: Venous blood samples (10 mL) were collected and ammonia concentrations were obtained by methods known in the art.
Mean values and mean changes from baseline in blood ammonia concentration and critical flicker frequency values were collected. Analyses of blood ammonia concentrations and critical flicker frequency values were based upon quantitative values (not qualitative grades). Treatment differences for mean change from baseline in these parameters was estimated using a mixed effects model with fixed effects for time and baseline value.
Table 22 summarizes changes from baseline to end of treatment in venous ammonia level by treatment group in the first study.

[5] = tested on: Conn score (mental state grade) in subjects with HE; experiment: Time to any increase from baseline in Conn score, first study; type: in vivo, human
From the text: Measurements of change in mental status may be done, for example, by the Conn score (also known as the West Haven score). The Conn score has been widely used as a measure of mental state in HE studies and is based on the criteria of Parsons-Smith as modified by Conn. Asterixis will not be considered when assessing the subject's status using the Conn scoring criteria listed below.
The scale used in the Conn scoring system is provided below. • Grade 0=No personality or behavioral abnormality detected • Grade 1=Trivial lack of awareness, euphoria or anxiety; shortened attention span; impairment of addition or subtraction • Grade 2=Lethargy; disorientation for time; obvious personality change; inappropriate behavior • Grade 3=Somnolence to semi-stupor, responsive to stimuli; confused; gross disorientation; bizarre behavior • Grade 4=Coma; unable to test mental state
FIG. 11 illustrates time to any increase from baseline in Conn score by treatment group in the ITT population. Table 20 presents estimates of the proportions of subjects who had any increase in Conn score over the course of the Treatment Period and results of statistical analyses. Subjects who discontinued prior to experiencing an increase in Conn score and prior to completion of the 6-month treatment period were censored at the time of discontinuation.

[6] = tested on: Staphylococcus, Streptococcus, Enterococcus, and Enterobacteriaceae; conditions: cited from earlier work
clinical = conditions: human, in vivo
[7] = Treatment interval 0 to <28 days
[8] = Treatment interval 28 to <56 days
[9] = Treatment interval 56 to <84 days
[10] = Treatment interval 84 to <140 days
[11] = Treatment interval 140 to <168 days
[12] = any increase from baseline in asterixis grade, 550 mg BID, N = 140, Days >=168
[13] = any increase from baseline in asterixis grade; 550 mg BID; N = 140; Days [0-28)
[14] = any increase from baseline in asterixis grade; 550 mg BID; N = 140; Days [28-56)
[15] = any increase from baseline in asterixis grade; 550 mg BID; N = 140; Days [56-84)
[16] = any increase from baseline in asterixis grade; 550 mg BID; N = 140; Days [84-140)
[17] = any increase from baseline in asterixis grade; 550 mg BID; N = 140; Days [140-168)
[18] = any increase from baseline in Conn score, 550 mg BID, N = 140, Days >=168
[19] = any increase from baseline in Conn score; 550 mg BID; N = 140; Days [0-28)
[20] = any increase from baseline in Conn score; 550 mg BID; N = 140; Days [28-56)
[21] = any increase from baseline in Conn score; 550 mg BID; N = 140; Days [56-84)
[22] = any increase from baseline in Conn score; 550 mg BID; N = 140; Days [84-140)
[23] = any increase from baseline in Conn score; 550 mg BID; N = 140; Days [140-168)
[24] = first study, ITT, first increase in Conn score, N = 140, treatment interval 0 to <28 days
[25] = first study, ITT, first increase in Conn score, N = 140, treatment interval 28 to <56 days
[26] = first study, ITT, first increase in Conn score, N = 140, treatment interval 56 to <84 days
[27] = first study, ITT, first increase in Conn score, N = 140, treatment interval 84 to <140 days
[28] = first study, ITT, first increase in Conn score, N = 140, treatment interval 140 to <168 days
[29] = first study, ITT, first increase in Conn score, N = 140, treatment interval ≥168 days

## CO[C@H]1/C=C/O[C@@]2(C)Oc3c(C)c(O)c4c(O)c(c5c(nc6cc(C)ccn65)c4c3C2=O)NC(=O)/C(C)=C\C=C\[C@H](C)[C@H](O)[C@@H](C)[C@@H](O)[C@@H](C)[C@H](OC(C)=O)[C@@H]1C [Rifaximin]
[1]; 6-month treatment period
  reduction in risk of HE-caused hospitalization compared with placebo: 56%
[1]; rifaximin group
  HE-caused hospitalization rate: 0.30 events/PEY
  subjects with HE-caused hospitalizations (of 140): 15
[2]; 24/266 subjects
  subjects with worsening of Conn score by 1 or 2 grades: 9.0%
[2]; continuing rifaximin group, 6/70 subjects
  incidence of worsening asterixis grades: 8.6%
[2]; last visit, 4 subjects of 67
  subjects with 2-grade improvement in asterixis among those entering with scores of 1, 2 or 3: 6.0%
[2]; last visit, 5 subjects of 67
  subjects with 3-grade improvement in asterixis among those entering with scores of 1, 2 or 3: 7.5%
[2]; last visit, 7 subjects of 84
  subjects with 2-grade improvement in Conn score among those entering with Conn 1, 2, or 3: 8.3%
[2]; last visit, 47 subjects of 84
  subjects with 1-grade improvement in Conn score among those entering with Conn 1, 2, or 3: 56.0%
[2]; new rifaximin group, 12/196 subjects
  incidence of worsening asterixis grades: 6.1%
[3]; [7]
  Probability of no increase in asterixis grade: 1.0000
  Cummulative number of events (increase in asterixis grade): 13
[3]; [8]
  Probability of no increase in asterixis grade: 0.9048
  Cummulative number of events (increase in asterixis grade): 20
  Number of events (increase in asterixis grade): 7
[3]; [9]
  Probability of no increase in asterixis grade: 0.8499
  Cummulative number of events (increase in asterixis grade): 27
  Number of events (increase in asterixis grade): 7
[3]; [10]
  Probability of no increase in asterixis grade: 0.7910
  Cummulative number of events (increase in asterixis grade): 30
  Number of events (increase in asterixis grade): 3
[3]; [11]
  Probability of no increase in asterixis grade: 0.7637
  Cummulative number of events (increase in asterixis grade): 31
  Number of events (increase in asterixis grade): 1
[3]; Treatment interval ≥168 days
  Probability of no increase in asterixis grade: 0.7534
  Cummulative number of events (increase in asterixis grade): 32
  Number of events (increase in asterixis grade): 1
[3]; [12]
  Cumulative Occurrences of Events: 32
  Occurrences of Events: 1
[3]; [13]
  Cumulative Occurrences of Events: 13
  Occurrences of Events: 13
[3]; [14]
  Cumulative Occurrences of Events: 20
  Occurrences of Events: 7
[3]; [15]
  Cumulative Occurrences of Events: 27
  Occurrences of Events: 7
[3]; [16]
  Cumulative Occurrences of Events: 30
  Occurrences of Events: 3
[3]; [17]
  Cumulative Occurrences of Events: 31
  Occurrences of Events: 1
[3]; first study, rifaximin group
  subjects with increases in asterixis grade (of 140): 32
[3]; in vivo
  time to first increase in Asterixis grade vs placebo (FIG. 5, Kaplan Meier): increased time to the first increase in Asterixis grade
[4]
  Mean (SD) change in ammonia level: −5.7 (46.77) μg/dL
[5]; [18]
  Cumulative Occurrences of Events: 37
  Occurrences of Events: 1
  Survival: 0.7302
[5]; [19]
  Cumulative Occurrences of Events: 17
  Occurrences of Events: 17
  Survival: 1.0000
[5]; [20]
  Cumulative Occurrences of Events: 22
  Occurrences of Events: 5
  Survival: 0.8777
[5]; [21]
  Cumulative Occurrences of Events: 31
  Occurrences of Events: 9
  Survival: 0.8407
[5]; [22]
  Cumulative Occurrences of Events: 36
  Occurrences of Events: 5
  Survival: 0.7713
[5]; [23]
  Cumulative Occurrences of Events: 36
  Occurrences of Events: 0
  Survival: 0.7302
[5]; [24]
  Cummulative number of events: 17
  Number of events: 17
  Probability of no increase in Conn score: 1.0000
[5]; [25]
  Cummulative number of events: 22
  Number of events: 5
[5]; [26]
  Cummulative number of events: 31
  Number of events: 9
[5]; [27]
  Cummulative number of events: 36
  Number of events: 5
[5]; [28]
  Cummulative number of events: 36
  Number of events: 0
[5]; [29]
  Cummulative number of events: 37
  Number of events: 1
[5]; first study, rifaximin group
  subjects with increases in Conn score (of 140): 37
[5]; in vivo
  time to first increase in Conn scores vs placebo (FIG. 4, Kaplan Meier): increased time to the first increase in Conn scores
[6]
  in vitro activity against species of Staphylococcus, Streptococcus, Enterococcus, and Enterobacteriaceae: active
clinical
  Cmax: 52.2 ng/mL and 66.4 nM
